Entries after “also recorded” stand apart in the source; their conditions may differ.
Assays:
[1] = test system: human prostate cancer DU145 cells; experiment: Selective inhibitory activity on hypoxic cancer cell growth (MTT, hypoxic conditions 1% O2); format: cell-based; conditions: for selective inhibitory activity on hypoxic cell growth: 24 h, MTT
Description: (§1) Analog-k5, which is represented by formula (II), and analog-k6, which is represented by formula (III), were used as test compounds and furospinosulin-1 was used as the control compound. The test compounds and the control compound were separately dissolved in EtOH, and the respective solutions were prepared at predetermined concentrations. The cells used were human prostate cancer DU145 cells. Analog-k6 was synthesized according to the method described in Example 1 for synthesis of analog-k5 except for using 3-bromothiophene instead of 3-bromofuran.
To each well of 96-well multiwell plates, 200 μL (1×10^4 cells/well) of a DU145 cell suspension was added, and preculture was performed under conditions of 5% CO2 and 37° C. for 4 hours. Then, the multiwell plates were placed in a hypoxic culture chamber (manufactured by Mitsubishi Gas Chemical Company, Inc.) of 1% O2, 5% CO2 and 94% N2 (hypoxic conditions) and culture was performed for 12 hours. Then, the test compound solutions in EtOH were added to the corresponding wells in a volume of 2 μL per well, and culture was further continued under hypoxic conditions for 24 hours. After 24 hours of culture, MTT (3-(4,5-dimethylthiazol-2-yl)-2,5-diphenyltetrazolium bromide) reagent prepared at 200 μg/mL was added in a volume of 50 μL per well, and culture was performed under conditions of 5% CO2 and 37° C. for 3 hours. Next, after removal of the culture medium, the resulting MTT formazan was extracted with 200 μL of DMSO per well. The amount of the formazan dye was quantified by a colorimetric method (OD 560 nm) and the ratio of growth inhibition was calculated.
(§2) Analog-f9, which is represented by formula (VI), and analog-k13, which is represented by formula (CI), were used as the test compounds, and both were evaluated for the selective inhibitory activity on hypoxic cancer cell growth according to the same method as described in Example 5.

[2] = test system: human prostate cancer DU145 cells; experiment: Inhibitory activity on normoxic cell growth (MTT); format: cell-based; conditions: for inhibitory activity on normoxic cell growth / inhibitory activity on normoxic cell growth as compared with furospinosulin-1: DU145; for inhibitory activity on normoxic cell growth as compared with furospinosulin-1: in a high dose
Description: as §1
Meanwhile, the inhibitory activity of the test compounds on normoxic cell growth was measured in the following manner. To each well of 96-well multiwell plates, 200 μL (1×10^4 cells/well) of a DU145 cell suspension was added, and culture was performed under conditions of 5% CO2 and 37° C. for 12 hours. Then, the test compound solutions in EtOH were added to the corresponding wells in a volume of 2 μL per well, and culture was further continued under the same conditions for 24 hours. After 24 hours of culture, as is the case in hypoxic conditions, the MTT reagent was added and finally the ratio of growth inhibition was calculated.
as §2

Mouse sarcoma S180 cells [3] = experiment: Antitumor activity in mouse cancer cell transplant model; format: in vivo; conditions: ddY mice; for tumor weight, % of that of the control group / weight loss, diarrhea, visual abnormalities in organs: once every two days, 7 times; for tumor weight, % of that of the control group: S180; for weight loss, diarrhea, visual abnormalities in organs: all dose groups; for weight loss, diarrhea, visual abnormalities in organs / antitumor activity: oral; for antitumor activity: S180 transplant model
Description: A suspension of the test compound analog-k5 was prepared at predetermined concentrations in 1% CMC. The vehicle (1% CMC) was administered to the control group.
Mouse sarcoma S180 cells were prepared as a suspension of the density of 1×10^7 cells/mL in a serum-free RPMI culture medium and the suspension was kept on ice. Then, 100 μL (1×10^6 cells) each of the cell suspension was subcutaneously inoculated to the ventral side in female ddY mice (5-week old, six mice/group) with an injection needle of 23G. The mice were maintained for one week for engraftment of the […]. The test compound (10 mg/kg, 25 mg/kg and 50 mg/kg) or the vehicle (1% CMC) was orally administered on a schedule of once every two days, 7 times in total. The antitumor activity was evaluated as follows: one day after the final administration, tumors were isolated and weighed and then the tumor weight was compared between the test compound administration groups and the control group. Significance analysis was performed using a Dunnett's test at a significance level of 5%.
Analog-f9, which is represented by formula (VI), and analog-k13, which is represented by formula (CI), were used as the test compounds, and both were evaluated for the antitumor activity in a mouse cancer cell transplant model according to the same method as described in Example 6. However, the number of mice per group was changed to four, and the doses of test compounds were changed to 3 mg/kg, 10 mg/kg and 25 mg/kg.

[4] = test system: human prostate cancer DU145 cells; conditions: Non Patent Literature 4; cited from earlier work
Mouse sarcoma S180 cells [5] = conditions: mice subcutaneously inoculated with S180 cells; Non Patent Literature 4; cited from earlier work
[6] = test system: insulin-like growth factor 2 (IGF-2); conditions: mechanism of action; Non Patent Literature 4; cited from earlier work
[7] = at 1000 μM, DU145, hypoxic (1% O2) vs normoxic

CC(C)=CCC/C(C)=C/CC/C(C)=C/CC/C(C)=C/CC/C(C)=C/CCc1ccsc1 [analog-f9]
selective inhibitory activity on hypoxic cell growth [1, 7]: showed selective inhibitory activity on hypoxic cell growth
inhibitory activity on normoxic cell growth ([2]; concentrations of 10 μM or lower): hardly inhibits normoxic cell growth
inhibitory activity on normoxic cell growth ([2]; concentrations of 100 μM or lower): remarkably low inhibitory activity on normoxic cell growth
inhibitory activity on normoxic cell growth as compared with furospinosulin-1 [2]: lower inhibitory activity on normoxic cell growth
tumor weight, % of that of the control group (Mouse sarcoma S180 cells [3]; 10 mg/kg oral): 29%
tumor weight, % of that of the control group (Mouse sarcoma S180 cells [3]; 25 mg/kg oral): 18%
weight loss, diarrhea, visual abnormalities in organs (Mouse sarcoma S180 cells [3]): In no administration groups, regardless of the kind of test compound, weight loss or diarrhea, or visual abnormalities in organs of the mice were observed

CC(C)=CCC/C(C)=C/CC/C(C)=C/CC/C=C/CCc1ccoc1 [analog-k5]
selective inhibitory activity on hypoxic cell growth [1, 7]: showed selective inhibitory activity on hypoxic cell growth
inhibitory activity on normoxic cell growth as compared with furospinosulin-1 [2]: lower inhibitory activity on normoxic cell growth
tumor weight, % of that of the control group (Mouse sarcoma S180 cells [3]; 10 mg/kg oral): 70%
tumor weight, % of that of the control group (Mouse sarcoma S180 cells [3]; 25 mg/kg oral): 41%
tumor weight, % of that of the control group (Mouse sarcoma S180 cells [3]; 50 mg/kg oral): 28%
weight loss, diarrhea, visual abnormalities in organs (Mouse sarcoma S180 cells [3]): In no administration groups, weight loss or diarrhea, or visual abnormalities in organs of the mice were observed
antitumor activity (Mouse sarcoma S180 cells [3]): showed marked antitumor activity

CC(C)=CCC/C(C)=C/CC/C(C)=C/CC/C=C/CCc1ccsc1 [analog-k6]
selective inhibitory activity on hypoxic cell growth [1, 7]: showed selective inhibitory activity on hypoxic cell growth
inhibitory activity on normoxic cell growth as compared with furospinosulin-1 [2]: lower inhibitory activity on normoxic cell growth

C#CCC/C(C)=C/CC/C(C)=C/CC/C(C)=C/CC/C(C)=C/CCc1ccoc1 [analog-k13]
selective inhibitory activity on hypoxic cell growth [1, 7]: showed selective inhibitory activity on hypoxic cell growth
selective inhibition of hypoxic cell growth compared with furospinosulin-1 ([1]; entire range of tested concentrations, DU145): stronger than that of furospinosulin-1
inhibitory activity on normoxic cell growth as compared with furospinosulin-1 [2]: lower inhibitory activity on normoxic cell growth
tumor weight, % of that of the control group (Mouse sarcoma S180 cells [3]; 3 mg/kg oral): 70%
tumor weight, % of that of the control group (Mouse sarcoma S180 cells [3]; 10 mg/kg oral): 41%
tumor weight, % of that of the control group (Mouse sarcoma S180 cells [3]; 25 mg/kg oral): 28%
weight loss, diarrhea, visual abnormalities in organs (Mouse sarcoma S180 cells [3]): In no administration groups, regardless of the kind of test compound, weight loss or diarrhea, or visual abnormalities in organs of the mice were observed
antitumor activity (Mouse sarcoma S180 cells [3]): showed marked antitumor activity

CC(C)=CCC/C(C)=C/CC/C(C)=C/CC/C(C)=C/CCc1ccoc1 [furospinosulin-1, reference compound]
selective inhibitory activity on hypoxic cell growth [1, 7]: equal growth inhibitory activity against normoxic cells and hypoxic cells; also recorded: not selective for hypoxic cells
selective inhibitory activity on hypoxic cell growth ([1]; concentrations of 300 μM or lower, DU145, hypoxic vs normoxic): showed selective inhibitory activity on hypoxic cell growth
growth inhibitory activity against normoxic cells ([2]; at 1000 μM, DU145, 24 h, MTT): showed growth inhibitory activity even against normoxic cells
in vitro cancer cell growth inhibition, hypoxia selectivity [4]: inhibits in vitro cancer cell growth in a hypoxia-selective manner
in vivo tumor weight as compared with the control (Mouse sarcoma S180 cells [5]): significantly reduces in vivo tumor weight
hypoxia-inducible expression of IGF-2 [6]: inhibition of hypoxia-inducible expression of insulin-like growth factor 2 (IGF-2)

From patent US9371301B2, “Prenylarene compound and use thereof” (Osaka University, priority 2010, dated 2016)
